# Source: US9925227B2, “Composition for treating obesity and method of using the same” (POLIFENOLES NATURALES S.L., priority 2006, dated 2018)
# Experiment: Energy expenditure by indirect calorimetry, dose-response clinical trial
# Format: in vivo, human
# Conditions: for Energy Expenditure: obese non-diabetic females with NAFLD; for Total Energy Expenditure, From (start value): baseline; for Total Energy Expenditure, to (end value): end of trial
# From the text: Obese subjects diagnosed with NAFLD and with apparently healthy liver (HL) were matched in pairs based on age, body weight and body fat mass and were randomly divided into Experimental NAFLD group (n=36), Placebo NAFLD (n=36), Experimental HL (n=19) and Placebo-HL group (n=19). Subjects were randomly assigned, in equal numbers, to the phytomedicine experimental groups and the Placebo control group, using the Simple Randomization Procedure. Their daily dietary intake was restricted to 1800±100 kcals, of which 50±5% was in the form of carbohydrates, 30±5% from protein, and 20±5% from fat. Subjects were also instructed to consume all the foods and beverages designated by dieticians and provided by the Institute, and to eat no other food or high calories beverages. Patients were directed to take Experimental Sample and/or Placebo three times a day before meals. During the clinical phase, subjects were required to visit a designated hospital three times a week for physiological and biochemical analysis. Institute provided all foods and beverages by designated dieticians and labeled as B, L, and D for breakfast, lunch and dinner, respectively.
# Measurements of Fat Oxidation by Indirect Calorimetry
# Energy expenditure (EE) and substrate oxidations were measured by indirect calorimetry as described previously (Ranneries et al., 1998). Oxygen was measured with an electrochemical oxygen sensor, and carbon dioxide was measured by an infrared carbon dioxide sensor (Ametec Carbon Dioxide Analyzer). Calculations of EE and substrate oxidation rates were performed as previously described (Astrup et al., 1991). Protein oxidation was assumed to be constant and amounting to 15% of EE. The error of calculating EE by omitting the exact correction from urinary nitrogen was negligible and impossible to estimate during such a short period of time. The reliability was assessed by the coefficient of variation on resting energy expenditure repeated every week.
# This effect was clearly dose-dependent phenomenon. […] Based on our dose-response trial, the optimum dose of Experimental Sample was established as 600 mg per day, which was used in further clinical trials.
substance,measurement,setting,value
Fucoxanthin,increase in daily energy expenditure rate,25 mg fucoxanthin alone,1152 ± 290 kJ/day
same,Energy Expenditure,"Fucoxanthin 10 mg per day, 2 weeks",5.69 ± 0.21 kJ/min
same,Energy Expenditure,"Fucoxanthin 10 mg per day, 5 weeks",5.93 ± 0.15 kJ/min
same,Energy Expenditure,"Fucoxanthin 10 mg per day, 10 weeks",5.69 ± 0.21 kJ/min
same,Energy Expenditure,"Fucoxanthin 10 mg per day, 16 weeks",5.98 ± 0.18 kJ/min
same,Energy Expenditure,"Fucoxanthin 10 mg per day, Baseline",5.82 ± 0.18 kJ/min
same,"Total Energy Expenditure, From (start value)",Fucoxanthin 10 mg per day,8381 kJ/24 h
same,"Total Energy Expenditure, to (end value)",Fucoxanthin 10 mg per day,8611 kJ/24 h
same,"Change in Total Energy Expenditure, Net","Fucoxanthin 10 mg per day, p < NS vs placebo",Net 230 ± 147 kJ/24 h
same,Energy Expenditure,"Fucoxanthin 15 mg per day, 2 weeks",5.89 ± 0.14 kJ/min
same,Energy Expenditure,"Fucoxanthin 15 mg per day, 5 weeks",5.98 ± 0.17 kJ/min
same,Energy Expenditure,"Fucoxanthin 15 mg per day, 10 weeks",6.11 ± 0.21 kJ/min
same,Energy Expenditure,"Fucoxanthin 15 mg per day, 16 weeks",6.39 ± 0.17 kJ/min
same,Energy Expenditure,"Fucoxanthin 15 mg per day, Baseline",5.85 ± 0.27 kJ/min
same,"Total Energy Expenditure, From (start value)",Fucoxanthin 15 mg per day,8424 kJ/24 h
same,"Total Energy Expenditure, to (end value)",Fucoxanthin 15 mg per day,9202 kJ/24 h
same,"Change in Total Energy Expenditure, Net","Fucoxanthin 15 mg per day, p < 0.05 vs placebo",Net 778 ± 260 kJ/24 h
same,Energy Expenditure,"Fucoxanthin 25 mg per day, 2 weeks",6.02 ± 0.23 kJ/min
same,Energy Expenditure,"Fucoxanthin 25 mg per day, 5 weeks",5.92 ± 0.27 kJ/min
same,Energy Expenditure,"Fucoxanthin 25 mg per day, 10 weeks",6.29 ± 0.31 kJ/min
same,Energy Expenditure,"Fucoxanthin 25 mg per day, 16 weeks",6.72 ± 0.22 kJ/min
same,Energy Expenditure,"Fucoxanthin 25 mg per day, Baseline",5.92 ± 0.16 kJ/min
same,"Total Energy Expenditure, From (start value)",Fucoxanthin 25 mg per day,8525 kJ/24 h
same,"Total Energy Expenditure, to (end value)",Fucoxanthin 25 mg per day,9677 kJ/24 h
same,"Change in Total Energy Expenditure, Net","Fucoxanthin 25 mg per day, p < 0.05 vs placebo",Net 1152 ± 290 kJ/24 h
same,Energy Expenditure,"Fucoxanthin 50 mg per day, 2 weeks",5.91 ± 0.31 kJ/min
same,Energy Expenditure,"Fucoxanthin 50 mg per day, 5 weeks",6.32 ± 0.22 kJ/min
same,Energy Expenditure,"Fucoxanthin 50 mg per day, 10 weeks",6.92 ± 0.31 kJ/min
same,Energy Expenditure,"Fucoxanthin 50 mg per day, 16 weeks",7.37 ± 0.35 kJ/min
same,Energy Expenditure,"Fucoxanthin 50 mg per day, Baseline",6.04 ± 0.24 kJ/min
same,"Total Energy Expenditure, to (end value)",Fucoxanthin 50 mg per day,"10613, kJ/24 h"
same,"Change in Total Energy Expenditure, Net","Fucoxanthin 50 mg per day, p < 0.001 vs placebo",Net 1915 ± 246 kJ/24 h
